Key:
serum glucose = experiment: Effective clinical dose of delivery agent in humans (delivery efficiency); type: in vivo, human
Protocol: Next, delivery agents 1-3 were compared for the ability to efficiently transport an active agent across the GI mucosa in a biologically active form by determining the relationship between delivery agent dose, dose of active agent and the glucose response. The effective dose of delivery agent necessary to deliver a therapeutic dose of active agent and produce a therapeutic effect was measured. For delivery agent 3, the active agent was insulin, and the therapeutic effect was determined by the ability of the delivery agent/insulin combination to lower serum glucose by at least 10% within one hour post administration. For delivery agents 1 and 2, the active agent was heparin, and the therapeutic effect was determined by […]

[1] = test system: primary molecular targets; experiment: Receptor binding screening assays
Protocol: The present invention comprising compositions of insulin and the delivery agent 4-CNAB was evaluated for safety and toxicity in a nonclinical program that included pharmacological screening, pharmacokinetic profiling, and toxicity assessments in rats and monkeys.

[2] = Example 5: C-peptide corrected insulin pharmacokinetics; set-up: species or system human; conditions: in vivo; for C-peptide corrected insulin AUC(0-2) / C-peptide corrected insulin AUC(0-6) / C-peptide corrected insulin tmax, median: human
Protocol: (§1) On the basis of plasma concentrations of 4-CNAB and insulin, PK analysis was performed using non-compartmental PK methods as implemented in WinNonlin™ Professional version 3.2. The profiles for insulin and C-peptide corrected insulin were evaluated up to 6 hours as food was given 6 hours following insulin treatment. The following parameters were derived for 4-CNAB: Cmax, tmax, AUC(0-t), AUC(0-inf), AUC% Extrap, Kel, t1/2, CL/F, Vd/F, MRT(0-t), MRT(0-inf) and Frel. The following parameters were derived for insulin and C-peptide corrected insulin: Cmax, tmax, AUC(0-2), AUC(0-6), AUC(0-t) and concentrations (C^b) and corresponding time (t^b) immediately prior to intervention for hypoglycemia.
For the PK analysis of insulin, analysis was conducted for both measured insulin and C-peptide corrected insulin concentrations. This was done using concentrations of the precursor C-peptide and the following equation: Corrected Insulin Concentration=Insulin Concentration−(Baseline Ratio×C-peptide) where

Example 6: safety = experiment: Example 6: safety; set-up: species or system human; conditions: in vivo
Protocol: Safety was monitored by vital sign measurements and documentation of adverse events (AE) during all visits throughout the study.
Safety data included AEs, laboratory data, vital signs, physical examinations, and ECGs. Vital signs (systolic and diastolic blood pressure, respiration rate, heart rate, and body temperature) for each treatment group were summarized at baseline (defined as the −30 min time point) and at the end of each study day.

plasma C-peptide [3] = experiment: Example 5: plasma C-peptide; type: in vivo, human
Protocol: For insulin/4-CNAB treatment Groups 2 and 3, subjects' blood samples (1 drop per sample) were drawn at 15 minutes before dosing, and at 5, 10, 15, 20, 25, 30, 35, 40, and 50 minutes and at 1, 1.25, 1.5, 1.75, 2, 2.5, 3, 4, 6, 8 and 12 hours post-dose (21 samples per treatment for Insulin/4-CNAB dosing groups) for plasma glucose, insulin and C-peptide measurements. For the 4-CNAB alone treatment Group 1, blood samples were collected before dosing (−15 minutes), and at 30 minutes and at 2 hr post-dose for blood glucose measurements. For the insulin alone control group (minimum 3 subjects), blood samples (3 mL in sodium heparin tube) were drawn at 15 minutes before dosing, and at 10, 20, 30, 40, 50 minutes and 1, 1.25, 2, 2.5, 3 and 6 hr post-dose (12 samples per treatment). The blood samples for glucose were assayed in real time using a Glucometer®. These measurements were used for detection of onset of hypoglycemia, so rescue action could be taken where necessary. […]
Plasma C-peptide was measured using a DELFIA C-peptide kit, based on a solid phase, two-site fluoroimmunometric assay, which used the direct sandwich technique in which two monoclonal antibodies are directed against antigenic determinants on the C-peptide molecule. […] The fluorescence is directly proportional to the concentration of C-peptide in the sample.

[4] = Example 5: plasma insulin pharmacokinetics, healthy male volunteers; conditions: human, in vivo
Protocol: In Group 1, there were four escalating single doses of 4-CNAB (400, 800, 1400 and 2000 mg) and each subject received either all four of these escalating doses or three escalating single doses and one dose of placebo. […] In Group 3 there were three escalating oral doses of Insulin/4-CNAB (100 Units/300 mg, 100 Units/450 mg and 150 Units/100 mg) and one SC dose of 150 Units of insulin. Each subject received either all four of these treatments or three of these treatments and one placebo treatment. For all groups, there was a washout period of at least 72 hours between treatment periods.
For insulin/4-CNAB treatment Groups 2 and 3, subjects' blood samples (1 drop per sample) were drawn at 15 minutes before dosing, and at 5, 10, 15, 20, 25, 30, 35, 40, and 50 minutes and at 1, 1.25, 1.5, 1.75, 2, 2.5, 3, 4, 6, 8 and 12 hours post-dose (21 samples per treatment for Insulin/4-CNAB dosing groups) for plasma glucose, insulin and C-peptide measurements. For the 4-CNAB alone treatment Group 1, blood samples were collected before dosing (−15 minutes), and at 30 minutes and at 2 hr post-dose for blood glucose measurements. For the insulin alone control group (minimum 3 subjects), blood samples (3 mL in sodium heparin tube) were drawn at 15 minutes before dosing, and at 10, 20, 30, 40, 50 minutes and 1, 1.25, 2, 2.5, 3 and 6 hr post-dose (12 samples per treatment). The blood samples for glucose were assayed in real time using a Glucometer®. These measurements were used for detection of onset of hypoglycemia, so rescue action could be taken where necessary. Plasma glucose, insulin and C-peptide measurements were done according to standard procedures.
as §1
The plasma concentration-time profiles for 4-CNAB were evaluated in those subjects who received 4-CNAB or Insulin/4-CNAB treatments. Insulin, C-peptide and glucose concentration-time profiles following administration of all treatments were evaluated for the 20 subjects in Groups 2 and 3. Pharmacokinetic (“PK”) parameters for 4-CNAB, insulin and C-peptide corrected insulin, and pharmacodynamic (“PD”) parameters for glucose concentration change from baseline, respectively were calculated for subjects whether they required hypoglycemic rescue or not. Concentrations from subjects who required food/drink due to hypoglycemia were excluded from descriptive statistics.

plasma C-peptide [5] = experiment: Example 6: plasma C-peptide during glucose clamp; type: in vivo, human; conditions: for C-peptide level, mean: 15 U SC
Protocol: During each study period, blood samples were collected for the determination of plasma insulin concentrations, plasma C-peptide and plasma glucose concentration. Sampling occurred from 6 hrs before dosing and continued for 6 hrs after the dose was administered. Blood samples were collected via a venous cannula. Blood samples were collected relative to the administration of the study drug (1) prior to study of drug administration at −1 and −0.5 hrs, (2) immediately after study drug administration (time 0), and (3) post administration of the study drug at 10, 20, 30, 40, 50 min, and 1, 1.25, 1.5, 1.75, 2, 2.5, 3, 3.5, 4, 5, and 6 hrs
Blood samples were collected from each patient during each treatment period for determination of plasma insulin concentrations, plasma C-peptide, and plasma glucose. Glucose infusion rates and blood glucose measurements were measured continuously during the glucose clamp procedure. All treatments were identical in their sample collection and monitoring periods for all visits. After a 6 hours pre-dose baseline period for stabilization of blood glucose concentrations at the desired clamp level, the clamp procedure after study drug administration lasted 6 hours.

Compound: O=C(O)CCCNC(=O)c1ccc(Cl)cc1O [4-CNAB, 4-[(4-chloro, 2-hydroxybenzoyl)amino]butanoic acid]
- Effective clinical dose of delivery agent (serum glucose; active agent insulin, lowers serum glucose by at least 10% within one hour): 200 Mg
- Fold more efficient in facilitating transit across the GI mucosa vs delivery agent 1 (serum glucose; effective dose ratio): approximately 12 fold
- Fold more efficient in facilitating transport across the GI mucosa vs delivery agent 2 (serum glucose; effective dose ratio): 7.5 fold
- Activity in receptor binding screening [1]: did not demonstrate potential activity in any of the primary molecular targets

Compound: SC insulin: human regular insulin injected subcutaneously (Humulin R or equivalent; Calbiochem insulin in the rat studies)
- C-peptide corrected insulin AUC(0-2) ([2]; sc): 355.2 ± 170.2 pmol·h/L
- C-peptide corrected insulin AUC(0-6) ([2]; sc): 942.8 ± 333.0 pmol·h/L
- C-peptide corrected insulin tmax, median ([2]; sc): 1.88 h
- C-peptide corrected insulin C^b ([2]; sc): 159.5 ± 75.6 pmol/L
- C-peptide corrected insulin t^b, median ([2]; sc): 1.00 h
- Adverse events / tolerability (Example 6: safety): No adverse events were observed
- % Max C-peptide Reduction (plasma C-peptide [3]; 10 Units SC, carrier 0, unaudited data): 54.3 ± 9.8%
- Cmax ([4]; sc): 0.375 nM
- Insulin AUC(0-2) ([4]; sc): 414.3 ± 181.5 pmol·h/L
- Insulin AUC(0-6) ([4]; sc): 1228.5 ± 378.1 pmol·h/L
- Insulin C^b (immediately prior to recovery from hypoglycemia) ([4]; sc): 168.3 ± 77.5 pmol/L
- Insulin Cmax ([4]; sc): 54.5 ± 25.6 uU/ml
- Insulin t^b, median (range) ([4]; sc): 1.00 (0.75-1.25) h
- Insulin tmax ([4]; sc): 1.75 h
- Insulin tmax, median (range) ([4]; sc): 1.88 (1.58-4.00) h
- Change in C-peptide during treatment periods (plasma C-peptide [5]; 15 IU s.c., 300 IU oral and 150 IU oral): no significant changes
- C-peptide level, mean (plasma C-peptide [5]; 10 minutes): 1.05 nmol/L
- C-peptide level, mean (plasma C-peptide [5]; 20 minutes): 1.07 nmol/L
- C-peptide level, mean (plasma C-peptide [5]; 30 minutes): 1.09 nmol/L
- C-peptide level, mean (plasma C-peptide [5]; 40 minutes): 1.11 nmol/L
- C-peptide level, mean (plasma C-peptide [5]; 50 minutes): 1.05 nmol/L
- C-peptide level, mean (plasma C-peptide [5]; 60 minutes): 1.04 nmol/L
- C-peptide level, mean (plasma C-peptide [5]; 75 minutes): 1.07 nmol/L
- C-peptide level, mean (plasma C-peptide [5]; 90 minutes): 1.03 nmol/L
- C-peptide level, mean (plasma C-peptide [5]; 105 minutes): 1.01 nmol/L
- C-peptide level, mean (plasma C-peptide [5]; 120 minutes): 0.99 nmol/L
- C-peptide level, mean (plasma C-peptide [5]; 150 minutes): 1.01 nmol/L
- C-peptide level, mean (plasma C-peptide [5]; 180 minutes): 0.99 nmol/L
- C-peptide level, mean (plasma C-peptide [5]; 210 minutes): 0.97 nmol/L
- C-peptide level, mean (plasma C-peptide [5]; 240 minutes): 0.94 nmol/L
- C-peptide level, mean (plasma C-peptide [5]; 300 minutes): 0.96 nmol/L
- C-peptide level, mean (plasma C-peptide [5]; 360 minutes): 0.92 nmol/L
- C-peptide level, mean (plasma C-peptide [5]; Time 0): 1.04 nmol/L
- C-peptide level, mean (plasma C-peptide [5]; −30 minutes): 1.05 nmol/L
- C-peptide level, mean (plasma C-peptide [5]; −60 minutes): 1.02 nmol/L

Compound: oral insulin alone: recombinant human zinc insulin given orally without delivery agent
- C-peptide corrected insulin AUC(0-2) ([2]; po): 10.8 ± 16.6 pmol·h/L
- C-peptide corrected insulin AUC(0-6) ([2]; po): 21.5 ± 42.0 pmol·h/L
- C-peptide corrected insulin tmax, median ([2]; po): 2.00 h
- Change in C-peptide concentrations from baseline (plasma C-peptide [3]; 150 Units oral insulin alone): little change in C-peptide concentrations from baseline
- Cmax ([4]; po): 0.0384 nM
- Insulin AUC(0-2) ([4]; po): 51.8 ± 15.5 pmol·h/L
- Insulin tmax, median ([4]; po): 0.43 h

Source: US7429564B2, “Oral insulin therapy” (Emisphere Technologies, Inc., priority 2002, dated 2008)
